Test results from patent publication US8715709B2, “Sustained release intraocular implants and methods for treating ocular neuropathies” (Allergan, Inc., priority 2004, dated 2014).
Where a name gives a salt, the structure may show the parent alone. Read-outs that look alike come from different tables or passages of the source.

How the values were obtained:
[1] = aqueous / dissolution medium (0.9% saline), cited from earlier work
in vivo = settings: rabbit
Excerpt: Sampling was done from the anterior chamber for the first five animals after 1 hr, 3 hr, 6 hr, 12 hr, and 24 hr, and from both the anterior chamber and posterior segment of the remaining five animals after 1 hr, 3 hr, 6 hr, 24 hr, and 48 hr. One animal was used for each time point.

Compound	solubility in aqueous medium (in words) ([1]; listed as timolol maleate)	clearance in the posterior segment compared with anterior chamber (in words) (in vivo)	half-life (in vivo)	levels in the anterior chamber from posterior segment bolus injection (in words) (in vivo)	solubility in aqueous medium (in words) [1]
CC(C)(C)NC[C@H](O)COc1nsnc1N1CCOCC1 [Timolol Maleate, (−)-1-(tert-butylamino)-3-[(4-morpholino-1,2,5-thiadiazo-3-yl)oxy]-2-propanol maleate, (1:1) salt]	high water solubility	relatively slower clearance rate	~1.43 h	the levels were small and considered insignificant	
CC(C)(C)NC[C@H](O)COc1nsnc1N1CCOCC1 [Timolol freebase]					less soluble
